From patent US10881110B2, “Herbicidal compositions comprising isoxazolo[5,4-b]pyridines” (BASF SE, priority 2014, dated 2021)
Several values for one entry are separate records, joined by “and”; a condition that tells them apart may be missing. Equal entries are not always repeated. Where two headings read alike, the source gives them in different places.

Assays:
Experiment in all cases: greenhouse post-emergence herbicidal test
ERICA = assay type: in vivo, Conyza canadensis; parameters: key to herbicidal activity against ERICA found: rating on a scale from 0 to 100; settings: post emergence
Method in brief: (§1)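 Greenhouse pots, loamy sand substrate (~4.6% humus, ~69.9% sand). Spray applied once plants reached 1–15 cm. Scoring 0–100, day 20.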

LOLMU = assay type: in vivo, Lolium multiflorum
Protocol: The culture containers used were plastic pots containing medium loamy sand with approximately 4.6% of humus and 69.9% sand as substrate. The seeds of the test plants were sown separately for each species.
For the post-emergence treatment, the test plants were grown to a plant height of from 1 to 15 cm, depending on the plant habit, and only then treated with the active compounds which had been suspended or emulsified in water. To this end, the test plants were either sown directly, and grown in the same containers, or they were first grown separately as seedlings and transplanted into the test containers a few days prior to treatment.
Depending on the species, the plants were kept at 10-25° C. and 20-35° C., respectively.
The test period extended over 1 to 3 weeks. During this time, the plants were tended and their response to the individual treatments was evaluated 20 days after treatment except mentioned otherwise.
Evaluation was carried out using a scale from 0 to 100. 100 means no emergence of the plants, or complete destruction of at least the above-ground parts, and 0 means no damage or normal course of growth.
The respective stated components A and B, and, if appropriate, C, were formulated as a 10% by weight strength emulsion concentrate and, with addition of the amount of solvent system, introduced into the spray liquor used for applying the active compound. In the examples, the solvent used was water.
In the examples below, using the method of S. R. Colby (1967) “Calculating synergistic and antagonistic responses of herbicide combinations”, Weeds 15, p. 22 ff., the value E, which is expected if the activity of the individual active compounds is only additive, was calculated. E=X+Y−(X·Y/100)

ECHCG = assay type: in vivo, Echinochloa crus-galli; parameters: key to herbicidal activity against ECHCG found / herbicidal activity against ECHCH found: scale 0 to 100; settings: post emergence
Method in brief: as §1

O=C(O)c1cc(C2CC2)nc2onc(C3CC3)c12 [I.1]
pest or weed control at 31.25 g/ha (ERICA; Erigeron canadensis, post-emergence, 480 h, I.1 alone 31.25 g/ha a.i., read-out: herbicidal activity against ERICA found): 70% | pest or weed control at 62.5 g/ha (ERICA; Erigeron canadensis, post-emergence, 480 h, I.1 alone 62.5 g/ha a.i., read-out: herbicidal activity against ERICA found): 75% | pest or weed control at 125 g/ha (ERICA; Erigeron canadensis, post-emergence, 480 h, I.1 alone 125 g/ha a.i., read-out: herbicidal activity against ERICA found): 75% | pest or weed control at 31.25 g/ha (ERICA; Erigeron canadensis, post-emergence, 480 h, I.1 31.25 g/ha a.i., read-out: herbicidal activity against ERICA found): 50% | pest or weed control at 62.5 g/ha (ERICA; Erigeron canadensis, post-emergence, 480 h, I.1 62.5 g/ha a.i., read-out: herbicidal activity against ERICA found): 70% | pest or weed control at 125 g/ha (ERICA; Erigeron canadensis, post-emergence, 480 h, I.1 125 g/ha a.i., read-out: herbicidal activity against ERICA found): 65% | pest or weed control at 15.62 g/ha (ERICA; Erigeron canadensis, post-emergence, 480 h, single active, 15.62 g/ha a.i., read-out: herbicidal activity against ERICA found): 0% | herbicidal activity against ERICA found (ERICA; 6 days after treatment, g/ha a.i.: I.1 125, naptalam 50, mixture 125+50): 70 | herbicidal activity against ERICA found (ERICA; I.1 15.62 g/ha, B.95 1 g/ha a.i.): 0 | herbicidal activity against ERICA found (ERICA; I.1 15.62 g/ha, B.95 2 g/ha a.i.): 0 | herbicidal activity against ERICA found (ERICA; I.1 31.25 g/ha, B.103 15 g/ha a.i.): 0 | herbicidal activity against ERICA found (ERICA; I.1 31.25 g/ha, B.95 1 g/ha a.i.): 0 | herbicidal activity against ERICA found (ERICA; I.1 31.25 g/ha, B.95 2 g/ha a.i.): 0 | herbicidal activity against ERICA found (ERICA; I.1 62.5 g/ha, B.103 7.5 g/ha a.i.): 0 | herbicidal activity against ERICA found (ERICA; I.1 62.5 g/ha, B.103 15 g/ha a.i.): 0 | herbicidal activity against ERICA found (ERICA; I.1 62.5 g/ha, B.57 2 g/ha a.i.): 10 | herbicidal activity against ERICA found (ERICA; I.1 62.5 g/ha, B.89 25 g/ha a.i.): 10 | herbicidal activity against ERICA found (ERICA; I.1 62.5 g/ha, B.95 1 g/ha a.i.): 10 | herbicidal activity against ERICA found (ERICA; I.1 62.5 g/ha, B.95 2 g/ha a.i.): 10 | herbicidal activity against ERICA found (ERICA; a.i. g/ha: I.1 31.25, B.92 0.5, 20 days after treatment): 25% | herbicidal activity against ERICA found (ERICA; a.i. g/ha: I.1 62.5, B.191 225, 20 days after treatment): 90% | herbicidal activity against ERICA found (ERICA; a.i. g/ha: I.1 62.5, B.69 25, 20 days after treatment): 90% | herbicidal activity against ERICA found (ERICA; a.i. g/ha: I.1 62.5, B.80 250, 20 days after treatment): 65% | herbicidal activity against ERICA found (ERICA; application rate a.i.: I.1 20.8 g/ha, B.107 (topramezone) 6 g/ha, alone or as mixture (composition 1.107)): 65 | herbicidal activity against ERICA found (ERICA; application rate a.i.: I.1 31.25 g/ha, B.100 (isoxaflutole) 12.5 g/ha, alone or as mixture (composition 1.100)): 25 | herbicidal activity against ERICA found (ERICA; application rate a.i.: I.1 31.25 g/ha, B.84 (paraquat-dichloride) 17.5 g/ha, alone or as mixture (composition 1.84)): 55 | herbicidal activity against ERICA found (ERICA; application rate a.i.: I.1 62.5 g/ha, B.100 (isoxaflutole) 12.5 g/ha, alone or as mixture (composition 1.100)): 75 | herbicidal activity against ERICA found (ERICA; application rate a.i.: I.1 62.5 g/ha, B.107 (topramezone) 6 g/ha, alone or as mixture (composition 1.107)): 65 | herbicidal activity against ERICA found (ERICA; applied alone at 62.5 g/ha a.i.): 75 | herbicidal activity against ERICA found (ERICA; applied alone at 125 g/ha a.i.): 75 and 65 | herbicidal activity against ERICA found (ERICA; g/ha a.i.: I.1 31.25, B.52 2.5, mixture 31.25+2.5): 0 | herbicidal activity against ERICA found (ERICA; g/ha a.i.: I.1 31.25, B.52 5, mixture 31.25+5): 0 | herbicidal activity against ERICA found (ERICA; g/ha a.i.: I.1 62.5, B.52 2.5, mixture 62.5+2.5): 35 | herbicidal activity against ERICA found (ERICA; g/ha a.i.: I.1 62.5, B.52 5, mixture 62.5+5): 35 | herbicidal activity against LOLMU found (LOLMU; a.i. g/ha: I.1 7.8, B.67 125, 20 days after treatment): 0% | herbicidal activity against LOLMU found (LOLMU; a.i. g/ha: I.1 15.6, B.67 125, 20 days after treatment): 0% | herbicidal activity against LOLMU found (LOLMU; a.i. g/ha: I.1 31.25, B.67 125, 20 days after treatment): 0% | herbicidal activity against LOLMU found (LOLMU; a.i. g/ha: I.1 62.5, B.67 62.5, 20 days after treatment): 40% | herbicidal activity against LOLMU found (LOLMU; a.i. g/ha: I.1 62.5, B.67 125, 20 days after treatment): 20% | herbicidal activity against LOLMU found (LOLMU; a.i. g/ha: I.1 62.5, B.77 75, 20 days after treatment): 20% | pest or weed control at 31.25 g/ha (ECHCG; Echinochloa crus-galli, post-emergence, 480 h, I.1 alone 31.25 g/ha a.i., read-out: herbicidal activity against ECHCG found): 0% | pest or weed control at 62.5 g/ha (ECHCG; Echinochloa crus-galli, post-emergence, 480 h, I.1 alone 62.5 g/ha a.i., read-out: herbicidal activity against ECHCG found): 45% | pest or weed control at 31.25 g/ha (ECHCG; Echinochloa crus-galli, post-emergence, 480 h, 31.25 g/ha a.i., read-out: herbicidal activity against ECHCG found): 0% | pest or weed control at 31.25 g/ha (ECHCG; Echinochloa crus-galli, post-emergence, 480 h, I.1 31.25 g/ha a.i., read-out: herbicidal activity against ECHCG found): 70% | pest or weed control at 15.62 g/ha (ECHCG; Echinochloa crus-galli, post-emergence, 480 h, single active, 15.62 g/ha a.i., read-out: herbicidal activity against ECHCG found): 0% | pest or weed control at 31.25 g/ha (ECHCG; Echinochloa crus-galli, post-emergence, 480 h, single active, 31.25 g/ha a.i., read-out: herbicidal activity against ECHCG found): 10% | herbicidal activity against ECHCG found (ECHCG; I.1 15.62 g/ha, B.167 125 g/ha a.i.): 0
